Our source for the EC50 values is patent publication US20230131192A1, “1H-PYRAZOLO[4,3-d]PYRIMIDINE COMPOUNDS AS TOLL-LIKE RECEPTOR 7 (TLR7) AGONISTS” (BRISTOL-MYERS SQUIBB COMPANY, priority 2020, published 2023).

The target in assay [1] is T1, human TLR7 (Homo sapiens, UniProt Q9NYK1).
T1 construct: host or cells: HEK-Blue TLR7 cells (engineered human embryonic kidney cells)
T1 sequence (Q9NYK1 27-1049): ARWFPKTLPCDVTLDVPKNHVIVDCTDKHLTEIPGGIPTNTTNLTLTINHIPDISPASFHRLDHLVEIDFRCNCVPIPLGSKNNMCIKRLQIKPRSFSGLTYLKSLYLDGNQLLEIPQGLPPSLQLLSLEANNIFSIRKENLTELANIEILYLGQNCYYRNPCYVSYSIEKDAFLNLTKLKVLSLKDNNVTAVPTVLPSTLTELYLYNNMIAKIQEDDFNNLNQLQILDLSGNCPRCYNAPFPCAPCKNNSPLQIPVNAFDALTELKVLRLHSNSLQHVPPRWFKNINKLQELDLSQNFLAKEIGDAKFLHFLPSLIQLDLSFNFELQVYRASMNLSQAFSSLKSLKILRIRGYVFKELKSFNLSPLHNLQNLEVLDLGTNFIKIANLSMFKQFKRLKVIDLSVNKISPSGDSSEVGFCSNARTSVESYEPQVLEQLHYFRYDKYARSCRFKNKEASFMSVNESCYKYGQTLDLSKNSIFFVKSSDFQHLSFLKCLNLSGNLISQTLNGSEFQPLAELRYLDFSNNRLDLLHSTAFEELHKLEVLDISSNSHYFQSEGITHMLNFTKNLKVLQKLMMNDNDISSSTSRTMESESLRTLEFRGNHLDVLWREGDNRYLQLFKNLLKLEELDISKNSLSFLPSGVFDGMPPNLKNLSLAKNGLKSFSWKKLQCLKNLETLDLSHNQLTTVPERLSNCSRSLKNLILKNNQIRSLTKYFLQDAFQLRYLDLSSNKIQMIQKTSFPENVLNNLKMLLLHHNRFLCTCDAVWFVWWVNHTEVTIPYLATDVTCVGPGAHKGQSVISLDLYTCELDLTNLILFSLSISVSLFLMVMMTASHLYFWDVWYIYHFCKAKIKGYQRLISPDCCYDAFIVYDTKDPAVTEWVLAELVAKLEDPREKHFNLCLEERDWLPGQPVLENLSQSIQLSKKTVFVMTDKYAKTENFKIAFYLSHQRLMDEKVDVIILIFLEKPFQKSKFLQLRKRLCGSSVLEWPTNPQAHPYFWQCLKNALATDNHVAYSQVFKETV
In words: Human TLR7 agonist (reporter) activity assay, HEK-Blue TLR7 cells, SEAP reporter. The class given is cell-based. To be noted: 18 h treatment, average where assay was performed multiple times, read-out: hTLR7 Agonism EC50. On the procedure:
This procedure describes a method for assaying human TLR7 (hTLR7) agonist activity of the compounds disclosed in this specification.
HEK-Blue™ TLR7 cells were added to each well of a 384-well tissue-culture plate (15,000 cells per well) and incubated 16-18 h at 37° C., 5% CO2. Compounds (100 nl) were dispensed into wells containing the HEK-Blue™ TLR cells and the treated cells were incubated at 37° C., 5% CO2. After 18 h treatment ten microliters of freshly-prepared Quanti-Blue™ reagent (Invivogen) was added to each well, incubated for 30 min (37° C., 5% CO2) and SEAP levels measured using an Envision plate reader (OD=620 nm). The half maximal effective concentration values (EC50; compound concentration which induced a response halfway between the assay baseline and maximum) were calculated.

The subject of assay [2] is CD69. The experiment in a line: Induction of CD69 in human whole blood. It is filed as cell-based. The note with it: 17 hrs, CD69 surface staining, 100% set to 1 uM of resiquimod, average where assay was performed multiple times, read-out: hWB CD69 EC50. On the procedure:
The induction of Type I interferon (IFN) MX-1 genes and the B-cell activation marker CD69 are downstream events that occur upon activation of the TLR7 pathway. The following is a human whole blood assay that measures their induction in response to a TLR7 agonist.
Heparinized human whole blood was harvested from human subjects and treated with test TLR7 agonist compounds at 1 mM. The blood was diluted with RPMI 1640 media and Echo was used to predot 10 nL per well giving a final concentration of 1 uM (10 nL in 10 uL of blood). After mixing on a shaker for 30 sec, the plates were covered and placed in a 37° C. chamber for o/n=17 hrs. Fixing/lysis buffer was prepared (5×→1× in H2O, warm at 37° C.; Cat # BD 558049) and kept the perm buffer (on ice) for later use.
For surface markers staining (CD69): prepared surface Abs: 0.045 ul hCD14-FITC (ThermoFisher Cat # MHCD1401)+0.6 ul hCD19-ef450 (ThermoFisher Cat #48-0198-42)+1.5 ul hCD69-PE (cat # BD555531)+0.855 ul FACS buffer. Added 3 ul/well, spin1000 rpm for 1 min and mixed on shaker for 30 sec, put on ice for 30 mins. Stop stimulation after 30 minutes with 70 uL of prewarmed 1× fix/lysis buffer and use Feliex mate to resuspend (15 times, change tips for each plate) and incubate at 37 C for 10 minutes.
Centrifuge at 2000 rpm for 5 minutes aspirate with HCS plate washer, mix on shaker for 30 sec and then wash with 70 uL in dPBS and pelleted 2×s (2000 rpm for 5 min) and 50 ul wash in FACS buffer pelleted 1×s(2000 rpm for 5 min). Mix on shaker for 30 sec. For Intracellular markers staining (MX-1): Add 50 ul of BD Perm buffer III and mix on shaker for 30 sec. Incubate on ice for 30 minutes (in the dark). Wash with 50 uL of FACS buffer 2× (spin @2300 rpm×5 min after perm) followed by mixing on shaker for 30 sec. Resuspended in 20 ul of FACS buffer containing MX1 antibody ( )(4812)-Alexa 647: Novus Biologicals #NBP2-43704AF647) 20 ul FACS bf+0.8 ul hlgG+0.04 ul MX-1. Spin 1000 rpm for 1 min, mix on shaker for 30se and the samples were incubated at RT in the dark for 45 minutes followed by washing 2×FACS buffer (spin @2300 rpm×5 min after perm). Resuspend 20 ul (35 uL total per well) of FACS buffer and cover with foil and place in 4° C. to read the following day. Plates were read on iQuePlus. The results were loaded into toolset and […] curves are generated in curve master. The y-axis 100% is set to 1 uM of resiquimod.

Each structure is given as a SMILES string.

With `COc1cc(CNC2CCOCC2)ccc1Cn1nc(C)c2nc(N)nc(NCc3cc(C)on3)c21` [Compound 112, 1-[(2-methoxy-4-{[(oxan-4-yl)amino]methyl}phenyl)methyl]-3-methyl-N7-[(5-methyl-1,2-oxazol-3-yl)methyl]-1H-pyrazolo[4,3-d]pyrimidine-5,7-diamine], the EC50 (usually the concentration that produces a half-maximal response) in assay [1] came out at 95.9 nM; in assay [2], 10.3 nM.

With `COc1cc(CN2CCN(C)CC2)ccc1Cn1nc(C)c2nc(N)nc(NCc3cc(C)on3)c21` [Compound 113, 1-({2-methoxy-4-[(4-methylpipeazin-1-yl)methyl]phenyl}methyl)-3-methyl-N7-[(5-methyl-1,2-oxazol-3-yl)methyl]-1H-pyrazolo[4,3-d]pyrimidine-5,7-diamine], the EC50 in assay [1] was 100 nM; in assay [2], 40.5 nM.

For `COc1cc(CNC2CCOCC2)ccc1Cn1ncc2nc(N)nc(NCc3noc(C)n3)c21` [Compound 114, 1-[(2-methoxy-4-{[(oxan-4-yl)amino]methyl}phenyl)methyl]-N7-[(5-methyl-1,2,4-oxadiazol-3-yl)methyl]-1H-pyrazolo[4,3-d]pyrimidine-5,7-diamine], the figures for the EC50 in assay [1] and in assay [2] were 79.1 nM and 19.6 nM, respectively.

Regarding `COc1cc(CN2CCN(C)CC2)ccc1Cn1ncc2nc(N)nc(NCc3noc(C)n3)c21` [Compound 115, 1-({2-methoxy-4-[(4-methylpiperazin-1-yl)methyl]phenyl}methyl)-N7-[(5-methyl-1,2,4-oxadiazol-3-yl)methyl]-1H-pyrazolo[4,3-d]pyrimidine-5,7-diamine], the concentration giving a half-maximal response (EC50) in assay [1] was 67.2 nM; in assay [2], 15.5 nM.

For `COc1cc(CN2CCN(CCO)CC2)ccc1Cn1ncc2nc(N)nc(NCc3noc(C)n3)c21` [Compound 117, 2-[4-({4-[(5-amino-7-{[(5-methyl-1,2,4-oxadiazol-3-yl)methyl]amino}-1H-pyrazolo[4,3-d]pyrimidin-1-yl)methyl]-3-methoxyphenyl}methyl)piperazin-1-yl]ethan-1-ol], the concentration giving a half-maximal response (EC50) came to 18.6 nM in assay [1] and 1.4 nM in assay [2].

Consider `COc1cc(CN2CC(OC)C2)ccc1Cn1ncc2nc(N)nc(NCc3noc(C)n3)c21` [Compound 118, 1-({2-methoxy-4-[(3-methoxyazetidin-1-yl)methyl]phenyl}methyl)-N7-[(5-methyl-1,2,4-oxadiazol-3-yl)methyl]-1H-pyrazolo[4,3-d]pyrimidine-5,7-diamine], for which the half-maximal effective concentration (EC50) was 47.9 nM in assay [1] and 4.3 nM in assay [2].

Take `COc1cc(CN2CCC(S(C)(=O)=O)CC2)ccc1Cn1ncc2nc(N)nc(NCc3noc(C)n3)c21` [Compound 119, 1-({4-[(4-methanesulfonylpiperidin-1-yl)methyl]-2-methoxyphenyl}methyl)-N7-[(5-methyl-1,2,4-oxadiazol-3-yl)methyl]-1H-pyrazolo[4,3-d]pyrimidine-5,7-diamine]: the EC50 in assay [1] was 298 nM; in assay [2], 34.7 nM.

With `COc1cc(CN2CCN(S(C)(=O)=O)CC2)ccc1Cn1ncc2nc(N)nc(NCc3noc(C)n3)c21` [Compound 120, 1-({4-[(4-methanesulfonylpiperazin-1-yl)methyl]-2-methoxyphenyl}methyl)-N7-[(5-methyl-1,2,4-oxadiazol-3-yl)methyl]-1H-pyrazolo[4,3-d]pyrimidine-5,7-diamine], the EC50 in assay [1] was determined as 345 nM; in assay [2] it was 299 nM.

In the case of `COc1cc(CN2CCS(=O)(=O)CC2)ccc1Cn1ncc2nc(N)nc(NCc3noc(C)n3)c21` [Compound 121, 4-({4-[(5-amino-7-{[(5-methyl-1,2,4-oxadiazol-3-yl)methyl]amino}-1H-pyrazolo[4,3-d]pyrimidin-1-yl)methyl]-3-methoxyphenyl}methyl)-1λ^6-thiomorpholine-1,1-dione], the EC50 in assay [1] amounted to 656 nM; in assay [2], 289 nM.

In the case of `COc1cc(CNC2CN(S(C)(=O)=O)C2)ccc1Cn1ncc2nc(N)nc(NCc3noc(C)n3)c21` [Compound 122, 1-[(4-{[(1-methanesulfonylazetidin-3-yl)amino]methyl}-2-methoxyphenyl)methyl]-N7-[(5-methyl-1,2,4-oxadiazol-3-yl)methyl]-1H-pyrazolo[4,3-d]pyrimidine-5,7-diamine], the EC50 in assay [1] worked out at 570 nM; in assay [2] it was 221 nM.

With `COc1cc(CNC2CCN(S(C)(=O)=O)CC2)ccc1Cn1ncc2nc(N)nc(NCc3noc(C)n3)c21` [Compound 123, 1-[(4-{[(1-methanesulfonylpiperidin-4-yl)amino]methyl}-2-methoxyphenyl)methyl]-N7-[(5-methyl-1,2,4-oxadiazol-3-yl)methyl]-1H-pyrazolo[4,3-d]pyrimidine-5,7-diamine], the values for the EC50 in assay [1] and in assay [2] were 196 nM and 18.2 nM, respectively.

As to `COc1cc(CN2CC(OC)C2)ccc1Cn1ncc2nc(N)nc(N[C@H](CO)CC3CC3)c21` [Compound 125, (2S)-2-{[5-amino-1-({2-methoxy-4-[(3-methoxyazetidin-1-yl)methyl]phenyl}methyl)-1H-pyrazolo[4,3-d]pyrimidin-7-yl]amino}-3-cyclopropylpropan-1-ol], the results for the EC50 in assay [1] and in assay [2] were 138 nM and 15.2 nM, respectively.

For the molecule `COc1cc(CN2CCN(CCO)CC2)ccc1Cn1nc(C)c2nc(N)nc(NCC[C@H](O)C3CC3)c21` [Compound 126, (1S)-3-({5-amino-1-[(4-{[4-(2-hydroxyethyl)piperazin-1-yl]methyl}-2-methoxyphenyl)methyl]-3-methyl-1H-pyrazolo[4,3-d]pyrimidin-7-yl}amino)-1-cyclopropylpropan-1-ol], the EC50 came out at 740 nM in assay [1] and 25.3 nM in assay [2].

Consider `COc1cc(CNC2CCOCC2)ccc1Cn1ncc2nc(N)nc(NCc3noc(C4CC4)n3)c21` [Compound 127, N7-[(5-cyclopropyl-1,2,4-oxadiazol-3-yl)methyl]-1-[(2-methoxy-4-{[(oxan-4-yl)amino]methyl}phenyl)methyl]-1H-pyrazolo[4,3-d]pyrimidine-5,7-diamine], for which the EC50 in assay [1] was found to be 72.4 nM; in assay [2], 25.5 nM.
